The values that follow come from patent US20240103005A1, “N-ACRYLOYLINDOLES AND METHODS OF USE” (The University of Hong Kong, priority 2022, published 2024).

The experiment has as its system HepG2 cells. The experiment in a line: Imaging oxidized thiols in HepG2 cells under oxidative stress by NAI/NAIA couple. It counts as cell-based. Particulars: 50 μM, 10 min. As for the experimental part: Imaging Oxidized Thiols in HepG2 Cells Under Oxidative Stress by NAI/NAIA Couple
HepG2 cells were plated on a 8-well Nunc Lab-Tek chambered slide system and allowed to grow in complete medium at 37° C. with 5% CO2 to ca. 70% confluency. The cells were then pretreated with solvent vehicles, H2O2 (0.5 or 1 mM) or H2O2 (1 mM)+NAC (5 mM) in complete medium for 15 min at 37° C. The cells were washed with PBS and incubated with NAI compound 3 (50 μM) in complete medium for 10 min at 37° C. After that, the cells were washed with PBS and fixed by 4% paraformaldehyde in PBS at room temperature for 15 min. […] The cells were washed thrice with PBS and then imaged in PBS by confocal fluorescence microscopy.
Confocal fluorescence microscopy imaging was performed with a Zeiss laser scanning microscope 880 with a 20× water-immersion objective lens using ZEN 2.3 (Black Version) software (Carl Zeiss) with 3× magnification zoom-in. […] A region of interest (ROI) was created around individual cell, and cellular fluorescence intensity was measured. The reported average cellular fluorescence intensity was determined by averaging the measured intensity from 30 different cells from 3 different biological replicates/group. […]
Therefore, we sought to utilize the NAI/NAIA couple to capture oxidized thiols and image them by confocal fluorescence microscopy (FIGS. 12A-12B). […]

On to `C=CC(=O)N1CCc2cc(OCC(=O)OC(C)(C)C)ccc21` [compound 3b], for which the “trapping of free thiols in live cells” value is reported as “excellent trapping of free thiols”.
